Assay [1] concerns p-ERK. Put plainly: Western blot of cell lysates, p-ERK. To be noted: Colo38R, M21R and TPF-10-741 cells; vemurafenib 1 μM, sunitinib 3 μM, imatinib 20 μM. Background: In western blotting, separated proteins are transferred to a membrane and probed.
Protocol: A. Following an incubation at indicated time points at 37° C. cells were harvested and lysed. Cell lysates were analyzed by western blot with the indicated mAbs. β-actin-was used as a loading control. B. Following a 48 h incubation at 37° C. cells were harvested and lysed. Cell lysates were analyzed by western blot with the indicated mAbs. β-actin or Calnexin were used as a loading control. The results presented are representative of the results obtained in three independent experiments.
A. M21R and TPF-10-741 cells were transduced with PDGFRα-specific shRNA (#4) or with GFP-shRNA, used as a control, lentiviral particles. […] Following a three day incubation at 37° C. cells were harvested and lysed. Cell lysates were analyzed by western blot with the indicated mAbs. β-actin was used as a loading control. […] Cell proliferation was determined by MTT assay following a three day incubation at 37° C. Percentage of cell proliferation was calculated as the ratio of treated cells to untreated GFP-shRNA transduced cells. Data are expressed as mean±SD of the results obtained in three independent experiments. *** indicates P<0.01.
Following an incubation at indicated time points at 37° C. cells were harvested and lysed. Cell lysates were analyzed by western blot with the indicated mAbs. β-actin was used as a loading control. […]
Assay [2] concerns Colo38, Colo38R, M21, M21R and TPF-10-741 cells. Put plainly: MTT dose titration of PDGFRα-I. Type of assay: cell-based. To be noted: Homo sapiens; dose titration experiment, MTT assay, the 5 cell lines; read-out: IC50 doses. The method, then:
MTT assay was carried out as reported elsewhere^2. […] All experiments were performed three independent times in triplicates.
A dose titration experiment established the dose of PDGFRα-I to be combined with vemurafenib in the 5 cell lines.
On the technique in general: Tetrazolium dyes change colour on reduction, which living cells bring about.

In assay [3] the test system is melanoma cells. Put plainly: Overcoming BRAF-I resistance mediated by PDGFRβ upregulation. Type of assay: cell-based. To be noted: as reported and as found by the applicant.

This is an account of results in patent US10220091B2, “Combination treatments with sonic hedgehog inhibitors” (The General Hospital Corporation, priority 2013, dated 2019).

As for `CCCS(=O)(=O)Nc1ccc(F)c(C(=O)c2c[nH]c3ncc(-c4ccc(Cl)cc4)cc23)c1F` [vemurafenib], the p-ERK levels result in assay [1] is “not inhibited”. By IC50 is commonly meant the concentration at which inhibition is half-maximal. As for `CC1(COc2ccc3c(c2)ncn3-c2ccc3cccc(N4CCC(N)CC4)c3n2)COC1` [crenolanib], the IC50 in assay [2] stood at 1 µM.

With `CCN(CC)CCNC(=O)c1c(C)[nH]c(/C=C2\C(=O)Nc3ccc(F)cc32)c1C` [sunitinib], the IC50 in assay [2] was 2 µM.

Regarding `Cc1ccc(NC(=O)c2ccc(CN3CCN(C)CC3)cc2)cc1Nc1nccc(-c2cccnc2)n1` [imatinib], the “ability to overcome BRAF-I resistance mediated by PDGFRβ upregulation” value in assay [3] is “not able to overcome”.
